The results in this text go back to patent US20260132132A1, “3A,4,5,6-TETRAHYDRO-1 H-PYRAZOLO[3,4-C]PYRIDIN-7(7AH)-ONE DERIVATIVES AS FACTOR XIIA INHIBITORS” (KALVISTA PHARMACEUTICALS LIMITED, priority 2022, published 2026).

Experiment [1] addresses T1, Human Factor XIIa (hFXIIa) (Homo sapiens, UniProt P00748).
T1 construct: purchased Enzyme Research Laboratories
T1 sequence (P00748 373-615 limits assumed): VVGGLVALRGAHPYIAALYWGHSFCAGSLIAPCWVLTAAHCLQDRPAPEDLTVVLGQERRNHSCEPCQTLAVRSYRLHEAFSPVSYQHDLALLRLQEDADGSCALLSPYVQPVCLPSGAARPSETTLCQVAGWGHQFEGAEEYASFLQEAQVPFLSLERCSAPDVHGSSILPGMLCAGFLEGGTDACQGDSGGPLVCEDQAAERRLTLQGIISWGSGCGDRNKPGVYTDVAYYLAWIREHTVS
T1 sequence (P00748 20-372 partner limits assumed): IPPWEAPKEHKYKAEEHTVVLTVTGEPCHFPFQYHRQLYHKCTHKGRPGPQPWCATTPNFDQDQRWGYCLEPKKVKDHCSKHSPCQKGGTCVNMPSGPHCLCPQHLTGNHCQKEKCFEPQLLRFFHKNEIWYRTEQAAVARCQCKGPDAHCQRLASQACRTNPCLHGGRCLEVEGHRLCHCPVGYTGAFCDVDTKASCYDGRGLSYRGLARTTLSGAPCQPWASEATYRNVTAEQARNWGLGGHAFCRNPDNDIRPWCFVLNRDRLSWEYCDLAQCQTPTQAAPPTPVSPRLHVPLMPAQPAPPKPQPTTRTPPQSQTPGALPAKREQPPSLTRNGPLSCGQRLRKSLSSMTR
Nature of the experiment: Determination of Human Factor XIIa (hFXIIa) inhibition, fluorogenic substrate IC50 assay. The experiment is classed as biochemical. To be noted: fluorogenic substrate H-DPro-Phe-Arg-AFC at Km, 25° C., read-out: Human FXIIa IC50. On the procedure: Determination of Human Factor XIIa (hFXIIa) inhibition
The Km for the cleavage of the substrate by hFXIIa was determined by standard transformation of the Michaelis-Menten equation, with subsequent inhibition assays performed at substrate Km concentration.

Another experiment has as its target FXa (Homo sapiens, UniProt P00742). Nature of the experiment: Related protease inhibition: FXa, fluorogenic substrate. The class given is biochemical. Particulars: fluorogenic substrate at Km, 25° C.; H1-H3 = % activity at 40 μM. How it is done: Human serine protease enzyme Plasma Kallikrein, KLK1, FXa, Plasmin, Thrombin and Trypsin were assayed for enzymatic activity using an appropriate fluorogenic substrate at Km concentration, FXIa at fixed substrate concentration of 100 μM and various concentrations of the test compound.

Sequence of FXa (P00742 235-488 limits assumed): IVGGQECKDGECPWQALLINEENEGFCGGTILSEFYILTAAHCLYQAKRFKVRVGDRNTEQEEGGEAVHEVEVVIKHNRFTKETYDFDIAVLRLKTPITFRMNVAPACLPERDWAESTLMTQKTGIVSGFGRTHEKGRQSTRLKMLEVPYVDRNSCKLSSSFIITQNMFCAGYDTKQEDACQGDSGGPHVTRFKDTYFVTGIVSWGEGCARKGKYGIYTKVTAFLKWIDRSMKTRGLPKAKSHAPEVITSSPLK
Sequence of FXa (P00742 41-179 partner limits assumed): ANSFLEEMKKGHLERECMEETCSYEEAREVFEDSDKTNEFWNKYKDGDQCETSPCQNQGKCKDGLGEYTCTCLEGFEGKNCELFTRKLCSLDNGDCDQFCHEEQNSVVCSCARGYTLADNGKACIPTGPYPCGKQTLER

`COCCN1CCc2ccc(N3CCc4c(C(=O)NCC5CC5)nn(-c5cccc(Cl)c5)c4C3=O)cc2C1=O` [Example 1261, 1-(3-chlorophenyl)-N-(cyclopropylmethyl)-6-(2-(2-methoxyethyl)-1-oxo-1,2,3,4-tetrahydroisoquinolin-7-yl)-7-oxo-4,5,6,7-tetrahydro-1H-pyrazolo[3,4-c]pyridine-3-carboxamide]: the IC50 (usually the concentration that gives 50% inhibition) in experiment [1] is 300 to 1000 nM; at FXa, more than 40000 nM.
Consider `COCCN1CCc2ccc(N3CCc4c(C(=O)NCc5cc(C)n(C)n5)nn(-c5cccc(Cl)c5)c4C3=O)cc2C1=O` [Example 1262, 1-(3-chlorophenyl)-N-((1,5-dimethyl-1H-pyrazol-3-yl)methyl)-6-(2-(2-methoxyethyl)-1-oxo-1,2,3,4-tetrahydroisoquinolin-7-yl)-7-oxo-4,5,6,7-tetrahydro-1H-pyrazolo[3,4-c]pyridine-3-carboxamide], for which the results for the half-inhibitory concentration (IC50) (in experiment [1]; on FXa) were 100 to 300 nM and 10000 to 40000 nM, respectively.
For `Cc1cc(CNC(=O)c2nn(-c3cccc(Cl)c3)c3c2CCN(c2ccc4c(c2)C(=O)N(C)CC4)C3=O)n(C)n1` [Example 1264, 1-(3-chlorophenyl)-N-((1,3-dimethyl-1H-pyrazol-5-yl)methyl)-6-(2-methyl-1-oxo-1,2,3,4-tetrahydroisoquinolin-7-yl)-7-oxo-4,5,6,7-tetrahydro-1H-pyrazolo[3,4-c]pyridine-3-carboxamide] the same measures were 300 to 1000 nM and 10000 to 40000 nM.
With `CO[C@H]1CCOC[C@H]1NC(=O)c1nn(-c2cccc(Cl)c2)c2c1CCN(c1ccc3c(c1)C(=O)N(C)CC3)C2=O` [Example 1265, 1-(3-chlorophenyl)-N-((3R,4S)-4-methoxytetrahydro-2H-pyran-3-yl)-6-(2-methyl-1-oxo-1,2,3,4-tetrahydroisoquinolin-7-yl)-7-oxo-4,5,6,7-tetrahydro-1H-pyrazolo[3,4-c]pyridine-3-carboxamide], the half-maximal inhibitory concentration (IC50) in experiment [1] was 300 to 1000 nM; against FXa, more than 40000 nM.
As for `CN1CCc2ccc(N3CCc4c(C(=O)NC5(C)CCOCC5)nn(-c5cccc(Cl)c5)c4C3=O)cc2C1=O` [Example 1266, 1-(3-chlorophenyl)-6-(2-methyl-1-oxo-1,2,3,4-tetrahydroisoquinolin-7-yl)-N-(4-methyltetrahydro-2H-pyran-4-yl)-7-oxo-4,5,6,7-tetrahydro-1H-pyrazolo[3,4-c]pyridine-3-carboxamide], the IC50 in experiment [1] is 300 to 1000 nM; against FXa it was more than 40000 nM.
The matching figures for `Cc1ccc(CNC(=O)c2nn(-c3cccc(Cl)c3)c3c2CCN(c2ccc4c(c2)C(=O)N(C)CC4)C3=O)nn1` [Example 1267, 1-(3-chlorophenyl)-6-(2-methyl-1-oxo-1,2,3,4-tetrahydroisoquinolin-7-yl)-N-((6-methylpyridazin-3-yl)methyl)-7-oxo-4,5,6,7-tetrahydro-1H-pyrazolo[3,4-c]pyridine-3-carboxamide]: 300 to 1000 nM and more than 40000 nM.
For `COc1ccncc1CNC(=O)c1nn(-c2cccc(Cl)c2)c2c1CCN(c1ccc3c(c1)C(=O)N(C)CC3)C2=O` [Example 1271, 1-(3-chlorophenyl)-N-((4-methoxypyridin-3-yl)methyl)-6-(2-methyl-1-oxo-1,2,3,4-tetrahydroisoquinolin-7-yl)-7-oxo-4,5,6,7-tetrahydro-1H-pyrazolo[3,4-c]pyridine-3-carboxamide] the same measures were 100 to 300 nM and more than 40000 nM.
Turning to `Cc1cc(CNC(=O)c2nn(-c3cccc(Cl)c3)c3c2CCN(c2ccc4c(c2)C(=O)N(CCCO)CC4)C3=O)nn1C` [Example 1275, 1-(3-chlorophenyl)-N-((1,5-dimethyl-1H-pyrazol-3-yl)methyl)-6-(2-(3-hydroxypropyl)-1-oxo-1,2,3,4-tetrahydroisoquinolin-7-yl)-7-oxo-4,5,6,7-tetrahydro-1H-pyrazolo[3,4-c]pyridine-3-carboxamide], the figures for the IC50 (in experiment [1]; on FXa) were 10 to 100 nM and 10000 to 40000 nM, respectively.
For `Cc1cnnc(CNC(=O)c2nn(-c3cccc(Cl)c3)c3c2CCN(c2ccc4c(c2)C(=O)N(C)CC4)C3=O)c1` [Example 1282, 1-(3-chlorophenyl)-6-(2-methyl-1-oxo-1,2,3,4-tetrahydroisoquinolin-7-yl)-N-((5-methylpyridazin-3-yl)methyl)-7-oxo-4,5,6,7-tetrahydro-1H-pyrazolo[3,4-c]pyridine-3-carboxamide] the same measures were 300 to 1000 nM and more than 40000 nM.
As to `O=C(NCC1CC1)c1nn(-c2cccc(Cl)c2)c2c1CCN(c1cccc(N3CCCCC3=O)c1)C2=O` [Example 1285, 1-(3-chlorophenyl)-N-(cyclopropylmethyl)-7-oxo-6-(3-(2-oxopiperidin-1-yl)phenyl)-4,5,6,7-tetrahydro-1H-pyrazolo[3,4-c]pyridine-3-carboxamide], the 50% inhibitory concentration (IC50) in experiment [1] was 1000 to 3000 nM; against FXa it was more than 40000 nM.
For `Cc1ccncc1CNC(=O)c1nn(-c2cccc(Cl)c2)c2c1CCN(c1cccc(N3CCCCC3=O)c1)C2=O` [Example 1287, 1-(3-chlorophenyl)-N-((4-methylpyridin-3-yl)methyl)-7-oxo-6-(3-(2-oxopiperidin-1-yl)phenyl)-4,5,6,7-tetrahydro-1H-pyrazolo[3,4-c]pyridine-3-carboxamide] the same measures were 300 to 1000 nM and 10000 to 40000 nM.
The matching figures for `Cc1ccncc1CNC(=O)c1nn(-c2cccc(Cl)c2)c2c1CCN(c1ccc3c(c1)C(=O)N(CCO)CCO3)C2=O` [Example 1299, 1-(3-chlorophenyl)-6-(4-(2-hydroxyethyl)-5-oxo-2,3,4,5-tetrahydrobenzo[f][1,4]oxazepin-7-yl)-N-((4-methylpyridin-3-yl)methyl)-7-oxo-4,5,6,7-tetrahydro-1H-pyrazolo[3,4-c]pyridine-3-carboxamide]: 10 to 100 nM and 10000 to 40000 nM.
As to `CC(=O)N1CCc2ccc(N3CCc4c(C(=O)NCc5cc(C)n(C)n5)nn(-c5cccc(Cl)c5)c4C3=O)cc21` [Example 1304, 6-(1-acetylindolin-6-yl)-1-(3-chlorophenyl)-N-((1,5-dimethyl-1H-pyrazol-3-yl)methyl)-7-oxo-4,5,6,7-tetrahydro-1H-pyrazolo[3,4-c]pyridine-3-carboxamide], the 50% inhibitory concentration (IC50) was 300 to 1000 nM in experiment [1] and more than 40000 nM on FXa.
The matching figures for `Cc1cc(CNC(=O)c2nn(-c3cccc(Cl)c3)c3c2CCN(c2ccc4c(c2)C(=O)N(CCO)CCC4)C3=O)nn1C` [Example 1305, 1-(3-chlorophenyl)-N-((1,5-dimethyl-1H-pyrazol-3-yl)methyl)-6-(2-(2-hydroxyethyl)-1-oxo-2,3,4,5-tetrahydro-1H-benzo[c]azepin-8-yl)-7-oxo-4,5,6,7-tetrahydro-1H-pyrazolo[3,4-c]pyridine-3-carboxamide]: 10 to 100 nM and 3000 to 10000 nM.
Take `Cc1ccncc1CNC(=O)c1nn(-c2cccc(Cl)c2)c2c1CCN(c1ccc3c(c1)C(=O)N(CCO)CCC3)C2=O` [Example 1306, 1-(3-chlorophenyl)-6-(2-(2-hydroxyethyl)-1-oxo-2,3,4,5-tetrahydro-1H-benzo[c]azepin-8-yl)-N-((4-methylpyridin-3-yl)methyl)-7-oxo-4,5,6,7-tetrahydro-1H-pyrazolo[3,4-c]pyridine-3-carboxamide]: the half-inhibitory concentration (IC50) fell in the range of 10 to 100 nM in experiment [1] and 10000 to 40000 nM on FXa.
